The source of these data is patent publication US8034827B2, “Phenanthridine derivatives as bradykinin antagonists” (Richter Gegeon Nyrt., priority 2005, dated 2011).

The target of assay [1] is T1, recombinant human B1 receptors (Homo sapiens, UniProt P46663).
T1 construct: host or cells: CHO (CHO-B1)
T1 sequence (P46663 1-353): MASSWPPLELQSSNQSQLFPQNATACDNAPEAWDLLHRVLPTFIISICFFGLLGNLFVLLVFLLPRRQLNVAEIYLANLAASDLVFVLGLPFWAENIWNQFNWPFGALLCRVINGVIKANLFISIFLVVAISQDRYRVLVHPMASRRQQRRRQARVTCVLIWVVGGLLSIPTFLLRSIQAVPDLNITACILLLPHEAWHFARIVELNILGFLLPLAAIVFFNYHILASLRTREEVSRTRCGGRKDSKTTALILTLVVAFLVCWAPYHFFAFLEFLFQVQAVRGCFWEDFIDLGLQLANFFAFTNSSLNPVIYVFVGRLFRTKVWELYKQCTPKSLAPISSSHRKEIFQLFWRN
The experiment in a line: Antagonist potency by measurement of cytosolic calcium ion concentration in CHO-B1 cells (agonist LysDABK). The assay is classed as cell-based. The note with it: inhibition of LysDABK (EC80)-evoked [Ca2+]i elevation, fluo-4, read-out: B1 func. Here is the method: Assessment of Antagonist Potency at B1 and B2 Receptors In Vitro by Measurement of Cytosolic Calcium Ion Concentration with a Plate Reader Fluorimeter in Cells Expressing Recombinant Human B1 or B2 Receptors
Chinese hamster ovary (CHO) cells stably expressing recombinant human B1 (CHO-B1, Euroscreen) or B2 (CHO-B2, Perkin-Elmer) receptors were cultured in Dulbecco's Modified Eagle's Medium (DMEM) containing 10% Fetal Calf Serum (FCS), 100 U/ml penicillin, 0.1 mg/ml streptomycin, 0.25 μg/ml amphotericin B, 1% Minimum Essential Medium Eagle (MEM), non essential amino acid solution, 600 μg/ml G418, 1% pyruvate (for the B2 cell line). Cells were kept at 37° C. in a humidified incubator in an atmosphere of 5% CO2/95% air and were passaged 1:4 three times a week. Cells were plated at 1.5-2.5×10^4 cell/well on standard 96-well microplates, measurements of cytosolic calcium ion concentration ([Ca^2+]i) were carried out 1-2 days after cell plating.
Measurements of [Ca^2+]i were carried out on CHO-B1 and CHO-B2 cells stably expressing human B1 and B2 receptors, respectively. Cells were grown in standard 96-well microplates and before the measurement were loaded with a fluorescent Ca^2+-sensitive dye, fluo-4/AM (2 μM): after removing the culture medium the dye was added to the cells (dissolved in assay buffer: 145 mM NaCl, 5 mM KCl, 2 mM MgCl2, 2 mM CaCl2, 10 mM HEPES, 20 mM D-glucose, 2 mM probenecid, 100 μl/well) and cells were incubated at 37° C. in a humidified incubator in an atmosphere of 5% CO2/95% air for 40-120 min. To stop dye loading cells were washed twice with assay buffer. After washing, various concentrations of the test compounds (diluted in extracellular medium from a DMSO stock solution, final DMSO concentration was <0.1%) or buffer were added to each well depending on the experimental setup. After incubation at 37° C. for 20-25 min. baseline and agonist-evoked changes of [Ca^2+]i were measured column by column with a plate reader fluorimeter (Fluoroskan Ascent, Labsystems). Excitation and detection of emission was carried out from the bottom of the plate. Filters used for Fluo-4: excitation filter −485 nm, emission filter −538 nm. The whole measurement process was performed at 37° C. and was controlled by custom software. Inhibitory potency of the test compounds was assessed by measuring the reduction in the agonist-evoked [Ca^2+]i-elevation in the presence of different concentrations of the compounds. The agonists were LysDABK for CHO-B1, and bradykinin for CHO-B2 cells. Agonists were applied at an EC80 concentration, the EC80-values were derived from daily determined dose-response curves. Fluorescence data were expressed as ΔF/F (fluorescence change normalized to baseline). All treatments on a single plate were measured in multiple wells. Data from all wells with the same treatment were averaged and the average values were used for analysis. Inhibitory potency of a compound at a single concentration point was expressed as percent inhibition of the control agonist response. Sigmoidal concentration-inhibition curves were fitted to the data (derived from at least three independent experiments) and IC50-values were determined as the concentration that produces half of the maximal inhibition caused by the compound.

The target of assay [2] is T2, human recombinant bradykinin1 receptors (Homo sapiens, UniProt P46663).
T2 construct: host or cells: CHO cells
T2 sequence (P46663 1-353): T1 sequence (P46663 1-353)
The experiment in a line: Human recombinant bradykinin B1 receptor binding. The note with it: CHO cell membranes, [3H]-[Des-Arg10] Kallidin radioligand. Here is the method:
Receptor Binding Assays 1. Human Recombinant Bradykinin B1 Receptor Binding
Binding assays were carried out on human recombinant bradykinin1 receptors (expressed in CHO cells) according to the Euroscreen Technical Data Sheet (Cat. No.: ES-091). 20 μg protein/tube was incubated with [3,4-prolyl-3,4-^3H(N)]-[Des-Arg^10] Kallidin as radioligand. Non specific binding was determined in the presence of 10 μM Lys-des-Arg^9-Bradykinin. The final incubation volume was 250 μl. Samples were incubated for 15 min. at 25° C. then were rapidly vacuum filtered through GF/B filters presoaked for at least 1 h in 0.5% PEI. Radioactivity was determined by liquid scintillation spectroscopy.

The structures appear in SMILES notation. Structures can show the parent of a compound that is named as a salt.

The term Ki denotes a measure of affinity in units of concentration, obtained from inhibition or displacement.

For `NCc1ccc(CC(NC(=O)CC(NS(=O)(=O)c2ccc3ccccc3c2)c2ccccc2)C(=O)N2CCCC2)cc1` (racemic) [Example 70003770, (±)-N-[1-(4-aminomethyl-benzyl)-2-oxo-2-pyrrolidin-1-yl-ethyl]-3-(naphthalene-2-sulfonylamino)-3-phenyl-propionamide, reference compound], in assay [1], the IC50 is more than 500 nM. For the same compound, the Ki in assay [2] was more than 500 nM.
As to `CCCN1C(=O)C(NC(=O)Nc2ccc(N3CCC(N4CCCCC4)CC3)cc2)N=C(c2ccc(C)cc2)c2ccccc21` (racemic) [Example 70004387, (±)-N-[4-(1,4′-bipiperidin)-1′-yl-phenyl]-N′-[2,3-dihydro-5-(4-methyl-phenyl)-2-oxo-1-propyl-1H-1,4-benzodiazepin-3-yl]-urea, reference compound], the IC50 in assay [1] was in the range of 100 to 500 nM. Also, in assay [2], the Ki is less than 100 nM.
Turning to `O=C(CC1c2cc(F)ccc2-c2ccccc2N1S(=O)(=O)c1ccc(Cl)c(Cl)c1)NCCc1ccc(C2=NCCN2)cc1` (centres unmarked) [Example 1, 2-[5-(3,4-Dichloro-benzenesulfonyl)-8-fluoro-5,6-dihydro-phenanthridin-6-yl]-N-{2-[4-(4,5-dihydro-1H-imidazol-2-yl)-phenyl]-ethyl}-acetamide hydrochloride], the IC50 in assay [1] was less than 100 nM. Moreover, the Ki in assay [2] is less than 100 nM.
`O=C(CC1c2ccccc2-c2ccccc2N1S(=O)(=O)c1ccc(Cl)c(Cl)c1)NCCc1ccc(C2=NCCN2)cc1` (centres unmarked) [Example 2, 2-[5-(3,4-Dichloro-benzenesulfonyl)-5,6-dihydro-phenanthridin-6-yl]-N-{2-[4-(4,5-dihydro-1H-imidazol-2-yl)-phenyl]-ethyl}-acetamide hydrochloride]: the IC50 in assay [1] is less than 100 nM. Also, in assay [2], the Ki is less than 100 nM.
Turning to `O=C(CC1c2ccccc2-c2ccccc2N1S(=O)(=O)c1ccc(Cl)c(Cl)c1)NCCN1CCN(c2ccncc2)CC1` (centres unmarked) [Example 3], in assay [1], the IC50 was less than 100 nM. In assay [2], the Ki is less than 100 nM.
`O=C(CC1c2ccccc2-c2ccccc2N1S(=O)(=O)c1ccc(Cl)c(Cl)c1)N[C@H]1CC[C@H](CCN2CCCC2)CC1` (stereo partly drawn) [Example 4, trans-2-[5-(3,4-Dichloro-benzenesulfonyl)-5,6-dihydro-phenanthridin-6-yl]-N-[4-(2-pyrrolidin-1-yl-ethyl)-cyclohexyl]-acetamide]: the IC50 in assay [1] is less than 100 nM. Also, in assay [2], the Ki was less than 100 nM.
On to `O=C(CC1c2ccccc2-c2ccccc2N1S(=O)(=O)c1ccc(Cl)c(Cl)c1)N1CCC(Cc2ccc(C3=NCCN3)cc2)CC1` (centres unmarked) [Example 5, 2-[5-(3,4-Dichloro-benzenesulfonyl)-5,6-dihydro-phenanthridin-6-yl]-1-{4-[4-(4,5-dihydro-1H-imidazol-2-yl)-benzyl]-piperidin-1-yl}-ethanone], for which, in assay [1], the IC50 is less than 100 nM. Moreover, the Ki in assay [2] was less than 100 nM.
`O=C(CC1c2ccccc2-c2ccccc2N1S(=O)(=O)c1ccc(Cl)c(Cl)c1)N1CCC(Cc2ccc(C3=NCCCN3)cc2)CC1` (centres unmarked) [Example 6, 2-[5-(3,4-Dichloro-benzenesulfonyl)-5,6-dihydro-phenanthridin-6-yl]-1-{4-[4-(1,4,5,6-tetrahydro-pyrimidin-2-yl)-benzyl]-piperidin-1-yl}-ethanone]: the IC50 in assay [1] was less than 100 nM. For the same compound, in assay [2], the Ki is less than 100 nM.
Regarding `O=C(CC1c2ccccc2-c2ccccc2N1S(=O)(=O)c1ccc(Cl)c(Cl)c1)Nc1ccc(N2CCC(N3CCCCC3)CC2)cc1` (centres unmarked) [Example 8, N-(4-[1,4′]Bipiperidinyl-1-yl-phenyl)-2-[5-(3,4-dichloro-benzenesulfonyl)-5,6-dihydro-phenanthridin-6-yl]-acetamide], the IC50 in assay [1] lay in the range of 100 to 500 nM. Besides, the Ki in assay [2] was less than 100 nM.
Take `O=C(CC1c2ccccc2-c2ccccc2N1S(=O)(=O)c1ccc(Cl)c(Cl)c1)NCCCN1CCN(c2ccncc2)CC1` (centres unmarked) [Example 9, 2-[5-(3,4-Dichloro-benzenesulfonyl)-5,6-dihydro-phenanthridin-6-yl]-N-[3-(4-pyridin-4-yl-piperazin-1-yl)-propyl]-acetamide]: the IC50 in assay [1] is less than 100 nM. Further, the Ki in assay [2] is less than 100 nM.
Turning to `Cc1ccc(S(=O)(=O)N2c3ccccc3-c3ccccc3C2CC(=O)NCCc2ccc(C3=NCCN3)cc2)cc1` (centres unmarked) [Example 14, N-{2-[4-(4,5-Dihydro-1H-imidazol-2-yl)-phenyl]-ethyl}-2-[5-(toluene-4-sulfonyl)-5,6-dihydro-phenanthridin-6-yl]-acetamide hydrochloride], the IC50 in assay [1] is less than 100 nM. Further, the Ki in assay [2] is less than 100 nM.
Consider `Cc1cc(C)c(S(=O)(=O)N2c3ccccc3-c3ccccc3C2CC(=O)NCCc2ccc(C3=NCCN3)cc2)c(C)c1` (centres unmarked) [Example 15, N-{2-[4-(4,5-Dihydro-1H-imidazol-2-yl)-phenyl]-ethyl}-2-[5-(2,4,6-trimethyl-benzenesulfonyl)-5,6-dihydro-phenanthridin-6-yl]-acetamide hydrochloride], for which the IC50 in assay [1] was less than 100 nM. In addition, the Ki in assay [2] is less than 100 nM.
On to `COc1ccc(S(=O)(=O)N2c3ccccc3-c3ccccc3C2CC(=O)NCCc2ccc(C3=NCCN3)cc2)cc1` (centres unmarked) [Example 16, N-{2-[4-(4,5-Dihydro-1H-imidazol-2-yl)-phenyl]-ethyl}-2-[5-(4-methoxy-benzenesulfonyl)-5,6-dihydro-phenanthridin-6-yl]-acetamide hydrochloride], for which the IC50 in assay [1] was less than 100 nM. Further, the Ki in assay [2] was less than 100 nM.
With `COc1cccc2c1-c1ccccc1N(S(=O)(=O)c1ccc(Cl)c(Cl)c1)C2CC(=O)NCCc1ccc(C2=NCCN2)cc1` (centres unmarked) [Example 17, 2-[5-(3,4-Dichloro-benzenesulfonyl)-10-methoxy-5,6-dihydro-phenanthridin-6-yl]-N-{2-[4-(4,5-dihydro-1H-imidazol-2-yl)-phenyl]-ethyl}-acetamide hydrochloride], in assay [1], the IC50 is less than 100 nM. Besides, the Ki in assay [2] was less than 100 nM.
Turning to `O=C(CC1c2cc(F)cc(F)c2-c2ccccc2N1S(=O)(=O)c1ccc(Cl)c(Cl)c1)NCCc1ccc(C2=NCCN2)cc1` (centres unmarked) [Example 18, 2-[5-(3,4-Dichloro-benzenesulfonyl)-8,10-difluoro-5,6-dihydro-phenanthridin-6-yl]-N-{2-[4-(4,5-dihydro-1H-imidazol-2-yl)-phenyl]-ethyl}-acetamide hydrochloride], the IC50 in assay [1] is less than 100 nM. For the same compound, the Ki in assay [2] was less than 100 nM.
Take `CC(=O)c1ccc2c(c1)C(CC(=O)NCCc1ccc(C3=NCCN3)cc1)N(S(=O)(=O)c1ccc(Cl)c(Cl)c1)c1ccccc1-2` (centres unmarked) [Example 19, 2-[8-Acetyl-5-(3,4-dichloro-benzenesulfonyl)-5,6-dihydro-phenanthridin-6-yl]-N-{2-[4-(4,5-dihydro-1H-imidazol-2-yl)-phenyl]-ethyl}-acetamide hydrochloride]: the IC50 in assay [1] lay within 100 to 500 nM. In addition, the Ki in assay [2] is less than 100 nM.
